{
  "source": "paper PMC9167041",
  "about": "(Computational and Structural Biotechnology Journal, 2022)",
  "molecular_target": "SARS-CoV-2 M^pro (Severe acute respiratory syndrome coronavirus 2, UniProt P0DTD1)",
  "assay": "SARS-CoV-2 Mpro in vitro enzyme-based assay",
  "type": "biochemical",
  "settings": "compound at 10 μM",
  "data": [
    {"molecule": "C=C1CCC2[C@](C)(COC(C)=O)[C@H](OC(C)=O)CC[C@@]2(C)[C@@H]1C[C@H](SC(=S)N1CCN(C(=O)C2COc3ccccc3O2)CC1)C1=CCOC1=O", "note": "(stereo partly shown) [3j]", "values": [
      {"measurement": "inhibition of SARS-CoV-2 M^pro", "result": "rather low inhibitory effect"}
    ]}
  ]
}
